Measured values as given in ChEMBL document CHEMBL3885881, “DrugMatrix”.

Species: Rattus norvegicus
Experiment: DrugMatrix - Regimen: Daily Repeat
Type: toxicity, organism-based, Sprague-Dawley
Set-up: regimen Daily Repeat, gender Male, age 6-8 weeks
Conditions: in vivo, po, route oral GAVAGE, vehicle .5 % CMC; for ABSOLUTE BASOPHIL / ABSOLUTE EOSINOPHIL / ABSOLUTE LYMPHOCYTE / ABSOLUTE MONOCYTE / ABSOLUTE SEGMENTED NEUTROPHIL / BASOPHIL / EOSINOPHIL / ERYTHROCYTE COUNT / HEMATOCRIT / HEMOGLOBIN / LEUKOCYTE COUNT / LYMPHOCYTE / MEAN CORPUSCULAR HEMOGLOBIN / MEAN CORPUSCULAR HEMOGLOBIN CONCENTRATION / MEAN CORPUSCULAR VOLUME / MONOCYTE / NEUTROPHIL / NUCLEATED RED BLOOD CELLS / PLATELET COUNT: tissue Blood; for ALANINE AMINOTRANSFERASE / ALBUMIN / ALKALINE PHOSPHATASE / ASPARTATE AMINOTRANSFERASE / BLOOD UREA NITROGEN / CARBON DIOXIDE / CHLORIDE / CHOLESTEROL / CREATINE PHOSPHOKINASE / CREATININE / GLUCOSE / LACTATE DEHYDROGENASE / LIPASE / PHOSPHORUS / POTASSIUM / SODIUM / TOTAL BILIRUBIN / TOTAL PROTEIN / URIC ACID: tissue Plasma
[1] = 55 mg/kg, 120 h, dose level Low, time 5 day
[2] = 1000 mg/kg, 72 h, dose level High, time 3 day
[3] = 1000 mg/kg, 120 h, dose level High, time 5 day

CCN1CCCC1CNC(=O)c1cc(S(N)(=O)=O)ccc1OC (centres undefined) [SULPIRIDE]
ABSOLUTE BASOPHIL [1]: 0 CELLS/uL
ABSOLUTE EOSINOPHIL [1]: 0 CELLS/uL
ABSOLUTE LYMPHOCYTE [1]: 14792 CELLS/uL
ABSOLUTE MONOCYTE [1]: 54.33 CELLS/uL
ABSOLUTE SEGMENTED NEUTROPHIL [1]: 2187 CELLS/uL
BASOPHIL [1]: 0%
EOSINOPHIL [1]: 0%
ERYTHROCYTE COUNT [1]: 5.47 x10E6/uL
HEMATOCRIT [1]: 34.67%
HEMOGLOBIN [1]: 13.83 G/DL
LEUKOCYTE COUNT [1]: 17.03 x10E3/uL
LYMPHOCYTE [1]: 86%
MEAN CORPUSCULAR HEMOGLOBIN [1]: 25.3 pg
MEAN CORPUSCULAR HEMOGLOBIN CONCENTRATION [1]: 39.93 G/DL
MEAN CORPUSCULAR VOLUME [1]: 63.4 fL
MONOCYTE [1]: 0.33%
NEUTROPHIL [1]: 13.67%
NUCLEATED RED BLOOD CELLS [1]: 0 /100WBC
PLATELET COUNT [1]: 1253.33 x10E3/uL
ALANINE AMINOTRANSFERASE [1]: 50.67 u/L
ALBUMIN [1]: 4.43 G/DL
ALKALINE PHOSPHATASE [1]: 322.67 u/L
ASPARTATE AMINOTRANSFERASE [1]: 90 u/L
BLOOD UREA NITROGEN [1]: 16 mg/dL
CARBON DIOXIDE [1]: 28 mmol/L
CHLORIDE [1]: 102 MEQ/L
CHOLESTEROL [1]: 86.33 mg/dL
CREATINE PHOSPHOKINASE [1]: 434.67 u/L
CREATININE [1]: 0.2 mg/dL
GLUCOSE [1]: 160.33 mg/dL
LACTATE DEHYDROGENASE [1]: 149 u/L
LIPASE [1]: 9 u/L
PHOSPHORUS [1]: 13 mg/dL
POTASSIUM [1]: 6.98 MEQ/L
SODIUM [1]: 147.83 MEQ/L
TOTAL BILIRUBIN [1]: 0.2 mg/dL
TOTAL PROTEIN [1]: 6.2 G/DL
URIC ACID [1]: 1.9 mg/dL
ABSOLUTE BASOPHIL [2]: 0 CELLS/uL
ABSOLUTE EOSINOPHIL [2]: 50.67 CELLS/uL
ABSOLUTE LYMPHOCYTE [2]: 15013.67 CELLS/uL
ABSOLUTE MONOCYTE [2]: 0 CELLS/uL
ABSOLUTE SEGMENTED NEUTROPHIL [2]: 1202.33 CELLS/uL
BASOPHIL [2]: 0%
EOSINOPHIL [2]: 0.33%
ERYTHROCYTE COUNT [2]: 5.92 x10E6/uL
HEMATOCRIT [2]: 38.13%
HEMOGLOBIN [2]: 15.07 G/DL
LEUKOCYTE COUNT [2]: 16.27 x10E3/uL
LYMPHOCYTE [2]: 92%
MEAN CORPUSCULAR HEMOGLOBIN [2]: 25.5 pg
MEAN CORPUSCULAR HEMOGLOBIN CONCENTRATION [2]: 39.53 G/DL
MEAN CORPUSCULAR VOLUME [2]: 64.5 fL
MONOCYTE [2]: 0%
NEUTROPHIL [2]: 7.67%
NUCLEATED RED BLOOD CELLS [2]: 0 /100WBC
PLATELET COUNT [2]: 1327 x10E3/uL
ALANINE AMINOTRANSFERASE [2]: 52.33 u/L
ALBUMIN [2]: 4.53 G/DL
ALKALINE PHOSPHATASE [2]: 415 u/L
ASPARTATE AMINOTRANSFERASE [2]: 78.33 u/L
BLOOD UREA NITROGEN [2]: 16.67 mg/dL
CARBON DIOXIDE [2]: 29.33 mmol/L
CHLORIDE [2]: 102.67 MEQ/L
CHOLESTEROL [2]: 85 mg/dL
CREATINE PHOSPHOKINASE [2]: 227.33 u/L
CREATININE [2]: 0.21 mg/dL
GLUCOSE [2]: 146 mg/dL
LACTATE DEHYDROGENASE [2]: 310 u/L
LIPASE [2]: 9.33 u/L
PHOSPHORUS [2]: 14.17 mg/dL
POTASSIUM [2]: 7.01 MEQ/L
SODIUM [2]: 147.37 MEQ/L
TOTAL BILIRUBIN [2]: 0.2 mg/dL
TOTAL PROTEIN [2]: 6.33 G/DL
URIC ACID [2]: 1.47 mg/dL
ABSOLUTE BASOPHIL [3]: 0 CELLS/uL
ABSOLUTE EOSINOPHIL [3]: 69.67 CELLS/uL
ABSOLUTE LYMPHOCYTE [3]: 10948.67 CELLS/uL
ABSOLUTE MONOCYTE [3]: 52.33 CELLS/uL
ABSOLUTE SEGMENTED NEUTROPHIL [3]: 1129.33 CELLS/uL
BASOPHIL [3]: 0%
EOSINOPHIL [3]: 0.67%
ERYTHROCYTE COUNT [3]: 5.48 x10E6/uL
HEMATOCRIT [3]: 36.03%
HEMOGLOBIN [3]: 14.33 G/DL
LEUKOCYTE COUNT [3]: 12.2 x10E3/uL
LYMPHOCYTE [3]: 89.67%
MEAN CORPUSCULAR HEMOGLOBIN [3]: 26.17 pg
MEAN CORPUSCULAR HEMOGLOBIN CONCENTRATION [3]: 39.77 G/DL
MEAN CORPUSCULAR VOLUME [3]: 65.8 fL
MONOCYTE [3]: 0.33%
NEUTROPHIL [3]: 9.33%
NUCLEATED RED BLOOD CELLS [3]: 0.33 /100WBC
PLATELET COUNT [3]: 1145.33 x10E3/uL
ALANINE AMINOTRANSFERASE [3]: 56.33 u/L
ALBUMIN [3]: 4.6 G/DL
ALKALINE PHOSPHATASE [3]: 436.67 u/L
ASPARTATE AMINOTRANSFERASE [3]: 86 u/L
BLOOD UREA NITROGEN [3]: 17.67 mg/dL
CARBON DIOXIDE [3]: 26.33 mmol/L
CHLORIDE [3]: 99.33 MEQ/L
CHOLESTEROL [3]: 77 mg/dL
CREATINE PHOSPHOKINASE [3]: 198 u/L
CREATININE [3]: 0.18 mg/dL
GLUCOSE [3]: 150.67 mg/dL
LACTATE DEHYDROGENASE [3]: 162 u/L
LIPASE [3]: 13.33 u/L
PHOSPHORUS [3]: 14.83 mg/dL
POTASSIUM [3]: 7.2 MEQ/L
SODIUM [3]: 147.4 MEQ/L
TOTAL BILIRUBIN [3]: 0.2 mg/dL
TOTAL PROTEIN [3]: 6.37 G/DL
URIC ACID [3]: 1.9 mg/dL
